Results on nine compounds are retold here after patent US10450316B2, “Certain protein kinase inhibitor” (Chongqing Fochon Pharmaceutical Co., Ltd., priority 2015, dated 2019).

As a reminder, the IC50 is the concentration that gives 50% inhibition. The low end stands for greater potency, the high end for weaker potency.

The assay concerns BE(2)-C cell. The experiment in a line: Cell proliferation assay (MTS) in BE(2)-C cells. Format: cell-based. The following applies: Homo sapiens, inhibition of BE(2)-C cell proliferation, 48 h. The method, then:
MTS testing kit was purchased from Promega. The DMEM, Fetal bovine serum and Penicillin-Streptomycin were purchased from Gibco. Dimethyl sulfoxide (DMSO) was purchased from Sigma.
To investigate whether a compound is able to inhibit the activity of CDK4/6 in cells, mechanism-based assays using BE(2)-C cell (ATCC® number:CRL-2268) were developed. In the assay, inhibition of CDK4/6 was detected by the inhibition of BE(2)-C cell cells proliferation. BE(2)-C cell cells were cultured in culture flasks to 40-80% confluence in DMEM plus 10% fetal bovine serum. Cells were collected and plated onto 96-well plates at cell density of 3000 cells/well. Plates were incubated overnight at 37° C., with 5% CO2 to adhere. Compounds were added to the plates, the final compound concentrations were 10000, 3333, 1111, […], 123.5, 41.2, 13.7, 4.6 and 1.5 nM. Place plates at 37° C., with 5% CO2 for 48 h. After removing the medium, 20 μl MTS/100 μl medium mixture solution were added to each well and incubate the plates for exactly 2 hours. The reaction was terminated by adding 25 μl 10% SDS per well. Measure absorbance at 490 nm and 650 nm (reference wavelength). IC50 was calculated using GraphPad Prism 5.0.
Select compounds prepared as described above were assayed according to the biological procedures described herein. “++++” stands for IC50 value below about 10 nM. “+++” stands for IC50 value between greater than about 10 nM to about 100 nM. “++” stands for IC50 value between greater than about 100 nM to about […]. “+” stands for IC50 value greater than 1 μM.

For the compound `FC[C@@H]1CCc2nc3c(F)cc(-c4nc(Nc5ccc(CN6CCN7CCC[C@@H]7C6)cn5)ncc4F)cc3n21` [Example 19, 5-fluoro-4-((S)-5-fluoro-1-(fluoromethyl)-2,3-dihydro-1H-benzo[d]pyrrolo[1,2-a]imidazol-7-yl)-N-(5-(((R)-hexahydropyrrolo[1,2-a]pyrazin-2(1H)-yl)methyl)pyridin-2-yl)pyrimidin-2-amine], the half-inhibitory concentration (IC50) was less than 0.01 µM.

`C[C@@H]1CCc2nc3c(F)cc(-c4nc(Nc5ccc(CN6CCNCC6)cn5)ncc4F)cc3n21` [Example 82, (R)-5-fluoro-4-(5-fluoro-1-methyl-2,3-dihydro-1H-benzo[d]pyrrolo[1,2-a]imidazol-7-yl)-N-(5-(piperazin-1-ylmethyl)pyridin-2-yl)pyrimidin-2-amine] yielded a concentration for half-maximal inhibition (IC50) of 0.01 to 0.1 µM.

Compound `CCN1C2CCC1CN(Cc1ccc(Nc3ncc(F)c(-c4cc(F)c5nc6n(c5c4)[C@H](C(F)(F)F)CC6)n3)nc1)C2` [Example 81, N-(5-((8-ethyl-3,8-diazabicyclo[3.2.1]octan-3-yl)methyl)pyridin-2-yl)-5-fluoro-4-((S)-5-fluoro-1-(trifluoromethyl)-2,3-dihydro-1H-benzo[d]pyrrolo [1,2-a]imidazol-7-yl)pyrimidin-2-amine] showed an IC50 of 0.01 to 0.1 µM.

For the compound `CCN1CC2CCC(C1)N2Cc1ccc(Nc2cc(-c3cc(F)c4nc5n(c4c3)C(C)(C)CC5)c(F)cn2)nc1` [Example 163, N-(5-((3-ethyl-3,8-diazabicyclo[3.2.1]octan-8-yl)methyl)pyridin-2-yl)-5-fluoro-4-(5-fluoro-1,1-dimethyl-2,3-dihydro-1H-benzo[d]pyrrolo[1,2-a]imidazol-7-yl)pyridin-2-amine], the half-inhibitory concentration (IC50) is more than 1 µM.

For the compound `CCN1CC2CCC(C1)N2Cc1ccc(Nc2ncc(F)c(-c3cc(F)c4nc5n(c4c3)[C@H](C)CC5)n2)nc1` [Example 103, N-(5-((3-ethyl-3,8-diazabicyclo[3.2.1]octan-8-yl)methyl)pyridin-2-yl)-5-fluoro-4-((R)-5-fluoro-1-methyl-2,3-dihydro-1H-benzo[d]pyrrolo[1,2-a]imidazol-7-yl)pyrimidin-2-amine], the IC50 was 0.01 to 0.1 µM.

The compound `CN1C[C@@]2(C)CN(Cc3ccc(Nc4ncc(F)c(-c5cc(F)c6nc7n(c6c5)C5(CC7)CC5)n4)nc3)C[C@@]2(C)C1` [Example 139, 5-fluoro-4-(5-fluoro-2,3-dihydrospiro[benzo[d]pyrrolo[1,2-a]imidazole-1,1′-cyclopropan]-7-yl)-N-(5-(((3aR,6aS)-3a,5,6a-trimethylhexahydro-pyrrolo[3,4-c]pyrrol-2(1H)-yl)methyl)pyridin-2-yl)pyrimidin-2-amine] returned an IC50 of more than 1 µM.

Take `C[C@@H]1CCc2nc3c(F)cc(-c4nc(Nc5ccc(CN6CC7(CCN(C)CC7)C6)cn5)ncc4F)cc3n21` [Example 90, (R)-5-fluoro-4-(5-fluoro-1-methyl-2,3-dihydro-1H-benzo[d]pyrrolo[1,2-a]imidazol-7-yl)-N-(5-((7-methyl-2,7-diazaspiro[3.5]nonan-2-yl)methyl)pyridin-2-yl)pyrimidin-2-amine]: the concentration for half-maximal inhibition (IC50) is 0.01 to 0.1 µM.

In turn, `C[C@@H]1CCc2nc3c(F)cc(-c4nc(Nc5ccc(CN6CC7CCC(C6)N7C)cn5)ncc4F)cc3n21` [Example 105, 5-fluoro-4-((R)-5-fluoro-1-methyl-2,3-dihydro-1H-benzo[d]pyrrolo[1,2-a]imidazol-7-yl)-N-(5-((8-methyl-3,8-diazabicyclo[3.2.1]octan-3-yl)methyl)pyridin-2-yl)pyrimidin-2-amine] registered a 50% inhibitory concentration (IC50) of 0.01 to 0.1 µM.

As to `FC[C@@H]1CCc2nc3c(F)cc(-c4nc(Nc5ccc(CN6CC7CNCC7C6)cn5)ncc4F)cc3n21` (stereo partly drawn) [Example 26, 5-fluoro-4-((S)-5-fluoro-1-(fluoromethyl)-2,3-dihydro-1H-benzo[d]pyrrolo[1,2-a]imidazol-7-yl)-N-(5-((hexahydropyrrolo[3,4-c]pyrrol-2(1H)-yl)methyl)pyridin-2-yl)pyrimidin-2-amine], the IC50 is more than 0.1 µM.
